From article PMC4915154, “Development of background-free tame fluorescent probes for intracellular live cell imaging” (Nature Communications, 2016)

What was measured:
U-2 OS cells = assay: Cell viability assay (MTS); format: cell-based, human; conditions: 0-10 μM, 1-16 h
Protocol: Cell viability was assessed using MTS assay kit (Promega). 1 × 10^5 U-2 OS cells were seeded on 10 mm culture dishes; cells were stained with or without CO-1 ([…]) for 1–16 h. After incubation, the MTS reagent was added and incubated for 4 h at 37 °C. Absorbance was determined at 490 nm using SpectraMax M2 plate reader.
Supplementary Figure 18 Cell viability test for CO-1.
Cell viability was measured by MTS assay for concentration of probe at 0 μM, 0.3 μM, 1 μM, 3 μM and 10 μM in 1 hour, 4 hours and 16 hours incubation in U-2 OS cells. Absorbance was determined at 490 nm. Each absorbance value was subtracted with blank sample (blank sample = cells containing compound at respective concentration without MTS reagent). Cell viability was calculated by: (viable cells)% = (OD of treated sample/OD of untreated sample)×100. Data are presented as the means + SD obtained from triplicate experiments.
(also on this page, place not known: 25 50 75 100 hour (%) Incubation time CO-1 0 μM μM μM 0 0.3 1 3 μM 10 μM 1 4 hours 16 hours U -2 ( blank reagent) . Cell viability)
(§1) (1 picture or pasted object on this page, not shown here)

[1] = Photostability measurements; format: physicochemical; conditions: 10 μM in PBS buffer pH 7.4 with 1% DMSO, intensive radiation of strong light source
Protocol: 10 μM of CO-1 solution in PBS buffer (pH 7.4) containing 1% DMSO were placed in a 96-well plates. Fluorescence measurement were recorded every 30 s interval for a total period of 12 h (Ex/Em=490/520) under a xenon flashlamp. For harsh condition experiment, photostability test was done under high intensity UV lamp (Blak Ray, 100 W, 365 nm). Plates were irradiated for 10 min up to 2.5 h at 10 cm distance.
Supplementary Figure 17 Photostability analysis of CO-1.
10 μM CO-1 solution in PBS buffer (pH 7.4) containing 1% DMSO were placed in a 96-well plates. (a) Fluorescence measurement were recorded every 30 seconds interval for a total period of 12 hours (Ex/Em = 490/520) under a xenon flashlamp. (b) Photostability test under high intensity UV lamp (Blak Ray, 100W, 365 nm). Plates were irradiated for 10 minutes up to 2.5 hours at 10 cm distance. Values are represented as means (n=3) and fitted to a non-linear regression one-phase exponential decay (GraphPad Prism 5.0)
as §1

[2] = test system: azide-tagged intracellular organelles in U-2 OS cells; assay: Live cell SPAAC labelling of azide-tagged organelles (mitochondria, lysosome, golgi apparatus); format: cell-based, human; conditions: U-2 OS cells pre-treated with TPP-Az, Sphingo-Az or Morph-Az, 2 μM probe, 1 h, 37 °C
Text: Next, we investigated intracellular imaging in live cells using CO-1. We synthesized various azide-bearing reporters: TPP-Az, a triphenylphosphonium analogue which accumulates in mitochondria; Sphingo-Az, a ceramide analogue to target golgi apparatus; and Morph-Az, an azide derivative with morpholine moiety as a directing group for lysosome (Fig. 3a). SPAAC covalent labelling reactions between CO-1 and all azide reporters in vitro were clean and rapid. We anticipated that the cell permeable CO-1 is capable of labelling any azide reporters effectively, regardless the reporters' cellular localization. We added 2 μM CO-1 to the growth media of U-2 OS cells pre-treated with TPP-Az, Sphingo-Az or Morph-Az separately. Confocal fluorescence images were then taken after probe washing.
Figure 3 Live cell imaging with CO-1. (a) Chemical structures and schematic illustration of the covalent labelling of azide-tagged organelles using CO-1 in live cells. (b) Fluorescence imaging of mitochondria, lysosome and golgi apparatus in U-2 OS cells labelled with CO-1. Cells pre-treated with TPP-Az, Morph-Az or Sphingo-Az were incubated with 2 μM CO-1 in growth media at 37 °C for 1 h and followed by counterstaining with organelle trackers. Scale bar, 15 μm. (c) Fluorescence imaging of histone H2B in live U-2 OS. U-2 OS cells were co-transfected with plasmids pIre-Azi3 and pmH2B-6-mKate2-16tag to incorporate UAA Azi into H2B-mKate2 at site 16. After Azi incorporation, cells were labelled with 10 μM CO-1 for 90 min at 37 °C. Cells were then washed and imaged. The mKate2 (red) signals were detected in cell nuclei only, and colocalized with the CO-1 (green) signals in the merged image. Scale bar, 5 μm.
U-2 OS cells were treated with 5 μM TPP-Az, in culture media for 2 h at 37 °C. After incubation, cells were washed and added with 2 μM CO-1 probe. Labelling was allowed to proceed for 1 h at 37 °C in the incubator chamber. […]
Fluorescence imaging of mitochondria, lysosome and golgi apparatus in U-2 OS cells labeled with CO-1H. […] In contrast to CO-1, high fluorescence background from CO-1H was observed. […]

Photostability [1]: superior photostability
Structure (SMILES): Cc1cc(C)n2c1C(CCNC(=O)CCC(=O)OCC1C3CCC#CCCC31)=C1C=CC=[N+]1[B-]2(F)F (stereo not shown) [CO-1]
Cell viability / toxicity (U-2 OS cells): nontoxic and did not interfere with cell proliferation
Fluorescence background after washing [2]: Clean fluorescence background
Labelling of azide-tagged organelles [2]: clearly labelled the azide-tagged intracellular organelles in live cells
